Source: the NIST ThermoML archive (doi:10.1016/j.jct.2018.01.024)

Assay: mn = molality of the nth substance listed, in mol/kg
Settings: Liquid

NC(N)=O [urea] + O
Settings	mass density [kg/m3]
308.15 K, 50000 kPa, Constant-volume piezometry, m1 = 0.4362	1021.35
308.15 K, 50000 kPa, Constant-volume piezometry, m1 = 0.5644	1023.19
308.15 K, 50000 kPa, Constant-volume piezometry, m1 = 1.609	1037.21
308.15 K, 50000 kPa, Constant-volume piezometry, m1 = 2.505	1048.14
308.15 K, 50000 kPa, Constant-volume piezometry, m1 = 3.376	1057.95
308.15 K, 50000 kPa, Constant-volume piezometry, m1 = 5.39	1078.02
308.15 K, 50000 kPa, Constant-volume piezometry, m1 = 8	1099.83
308.15 K, 50000 kPa, Constant-volume piezometry, m1 = 10.99	1120.31
308.15 K, 50000 kPa, Constant-volume piezometry, m1 = 12.8	1130.92
308.15 K, 75000 kPa, Constant-volume piezometry, m1 = 0.1809	1027.35
308.15 K, 75000 kPa, Constant-volume piezometry, m1 = 0.4362	1030.99
308.15 K, 75000 kPa, Constant-volume piezometry, m1 = 0.5644	1032.8
308.15 K, 75000 kPa, Constant-volume piezometry, m1 = 1.609	1046.61
308.15 K, 75000 kPa, Constant-volume piezometry, m1 = 2.505	1057.37
308.15 K, 75000 kPa, Constant-volume piezometry, m1 = 3.376	1067.04
308.15 K, 75000 kPa, Constant-volume piezometry, m1 = 5.39	1086.84
308.15 K, 75000 kPa, Constant-volume piezometry, m1 = 8	1108.4
308.15 K, 75000 kPa, Constant-volume piezometry, m1 = 10.99	1128.64
308.15 K, 75000 kPa, Constant-volume piezometry, m1 = 12.8	1139.16
308.15 K, 100000 kPa, Constant-volume piezometry, m1 = 0.1809	1036.61
308.15 K, 100000 kPa, Constant-volume piezometry, m1 = 0.4362	1040.2
308.15 K, 100000 kPa, Constant-volume piezometry, m1 = 0.5644	1041.98
308.15 K, 100000 kPa, Constant-volume piezometry, m1 = 1.609	1055.64
308.15 K, 100000 kPa, Constant-volume piezometry, m1 = 2.505	1066.32
308.15 K, 100000 kPa, Constant-volume piezometry, m1 = 3.376	1075.91
308.15 K, 100000 kPa, Constant-volume piezometry, m1 = 5.39	1095.48
308.15 K, 100000 kPa, Constant-volume piezometry, m1 = 8	1116.79
308.15 K, 100000 kPa, Constant-volume piezometry, m1 = 10.99	1136.92
308.15 K, 100000 kPa, Constant-volume piezometry, m1 = 12.8	1147.3
323.15 K, 101 kPa, Vibrating tube method, m1 = 0.093	989.4
323.15 K, 101 kPa, Vibrating tube method, m1 = 0.1063	989.59
323.15 K, 101 kPa, Vibrating tube method, m1 = 0.141	990.1
323.15 K, 101 kPa, Vibrating tube method, m1 = 0.152	990.26
323.15 K, 101 kPa, Vibrating tube method, m1 = 0.1809	990.68
323.15 K, 101 kPa, Vibrating tube method, m1 = 0.2423	991.57
323.15 K, 101 kPa, Vibrating tube method, m1 = 0.4362	994.33
323.15 K, 101 kPa, Vibrating tube method, m1 = 0.5644	996.13
323.15 K, 101 kPa, Vibrating tube method, m1 = 1.008	1002.19
323.15 K, 101 kPa, Vibrating tube method, m1 = 1.609	1010.03
323.15 K, 101 kPa, Vibrating tube method, m1 = 2.505	1020.95
323.15 K, 101 kPa, Vibrating tube method, m1 = 3.376	1030.77
323.15 K, 101 kPa, Vibrating tube method, m1 = 4.33	1040.72
323.15 K, 101 kPa, Vibrating tube method, m1 = 5.39	1050.87
323.15 K, 101 kPa, Vibrating tube method, m1 = 8	1072.6
323.15 K, 101 kPa, Vibrating tube method, m1 = 9.9	1086.08
323.15 K, 101 kPa, Vibrating tube method, m1 = 12.8	1103.59
323.15 K, 10000 kPa, Constant-volume piezometry, m1 = 0.1809	994.94
323.15 K, 10000 kPa, Constant-volume piezometry, m1 = 0.4362	998.57
323.15 K, 10000 kPa, Constant-volume piezometry, m1 = 0.5644	1000.36
323.15 K, 10000 kPa, Constant-volume piezometry, m1 = 1.609	1014.19
323.15 K, 10000 kPa, Constant-volume piezometry, m1 = 2.505	1025.05
323.15 K, 10000 kPa, Constant-volume piezometry, m1 = 3.376	1034.82
323.15 K, 10000 kPa, Constant-volume piezometry, m1 = 5.39	1054.83
323.15 K, 10000 kPa, Constant-volume piezometry, m1 = 8	1076.49
323.15 K, 10000 kPa, Constant-volume piezometry, m1 = 10.99	1096.87
323.15 K, 10000 kPa, Constant-volume piezometry, m1 = 12.8	1107.38
